# Measured values as given in US11590116B2 (THERAVANCE BIOPHARMA R&D IP, LLC, priority 2019, dated 2023).
# Assays:
# [1] = molecular target: T1, recombinant human ALK5 (TGF-βR1) protein (Homo sapiens, UniProt P36897); experiment: Biochemical ALK5 (TGF-βR1) assay to measure pKi (LANCE Ultra ULight kinase assay); details: apparent pKi from pIC50 by Cheng-Prusoff, read-out: ALK5 pKi (converted)
# T1 construct: purchased Life Technologies PR9075A
# T1 sequence (P36897 34-503): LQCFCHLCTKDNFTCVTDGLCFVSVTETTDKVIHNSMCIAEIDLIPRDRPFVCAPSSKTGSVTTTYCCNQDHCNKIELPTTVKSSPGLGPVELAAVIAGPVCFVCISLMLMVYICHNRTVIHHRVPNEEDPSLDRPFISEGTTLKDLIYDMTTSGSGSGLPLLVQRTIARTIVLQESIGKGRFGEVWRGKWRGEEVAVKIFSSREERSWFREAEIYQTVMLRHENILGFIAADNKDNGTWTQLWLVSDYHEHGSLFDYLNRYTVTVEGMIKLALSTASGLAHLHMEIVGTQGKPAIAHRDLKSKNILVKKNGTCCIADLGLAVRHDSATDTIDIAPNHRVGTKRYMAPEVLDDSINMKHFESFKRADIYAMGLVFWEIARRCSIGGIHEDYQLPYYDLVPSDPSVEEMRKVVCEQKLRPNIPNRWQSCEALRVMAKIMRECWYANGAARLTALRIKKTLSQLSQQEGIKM
# Method in brief: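 Compounds (10 μM to 25 pM) preincubated 60 minutes at room temperature with enzyme, then reaction run 60 minutes at 37° C with ATP added as 125 μM (5× final). Stopped with EDTA plus Eu-anti-phospho-Topoisomerase 2-alpha (Thr1342) antibody, TR-FRET read at 665 nm; pIC50 converted to pKi via Cheng-Prusoff.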
# [2] = system: TGF-β-stimulated SMAD3 phosphorylation in BEAS-2B cells; experiment: Cellular ALK5 potency assay, inhibition of TGF-β stimulated pSMAD3 formation in BEAS-2B cells; assay type: cell-based; details: Homo sapiens; inhibition of TGF-β stimulated pSMAD3 formation, BEAS-2B cells; read-out: BEAS2B pIC50 (converted)
# Method in brief: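 BEAS-2B human lung epithelial cells pre-treated 1 h at 37° C with compound in HBSS/25 mM HEPES/1% BSA, then stimulated 30 min with 10 ng/mL TGF-β (final). Lysates assayed for pSMAD3 by AlphaLISA; pIC50 from dose-dependent change versus stimulated untreated cells.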
Compound,Ki [1] [nM],IC50 [2] [nM]
"Cc1cccc(-c2n[nH]cc2-c2ccc3ncc(-c4nn[nH]n4)cc3n2)n1 [Compound 177, 2-[3-(6-methyl-2-pyridyl)-1H-pyrazol-4-yl]-7-(2H-tetrazol-5-yl)-1,5-naphthyridine]",0.0398 to 0.316,1580 to 10000
"Cc1cccc(-c2n[nH]cc2-c2ccc3ncc(-c4cnn(CCN5CCNCC5)c4)cc3n2)n1 [Compound 178, 2-[3-(6-methyl-2-pyridyl)-1H-pyrazol-4-yl]-7-[1-(2-piperazin-1-ylethyl)pyrazol-4-yl]-1,5-naphthyridine]",< 0.0316,25.1 to 158
"Cc1cccc(-c2[nH]cnc2-c2ccc3ncc(N4CC5(CCNCC5)C4)cc3c2)n1 [Compound 179, 3-(2,7-diazaspiro[3.5]nonan-2-yl)-6-[5-(6-methyl-2-pyridyl)-1H-imidazol-4-yl]quinoline]",0.0398 to 0.316,25.1 to 158
"Cc1cccc(-c2[nH]cnc2-c2ccc3ncc(-c4cccc(NC5CNC5)n4)cc3c2)n1 [Compound 180, N-(azetidin-3-yl)-6-[6-[5-(6-methyl-2-pyridyl)-1H-imidazol-4-yl]-3-quinolyl]pyridin-2-amine]",0.0398 to 0.316,1580 to 10000
"Cc1cccc(-c2n[nH]cc2-c2ccc3ncc(N(C)CC(=O)N4CCOCC4)cc3n2)n1 [Compound 181, 2-[methyl-[6-[3-(6-methyl-2-pyridyl)-1H-pyrazol-4-yl]-1,5-naphthyridin-3-yl]amino]-1-morpholino-ethanone]",0.398 to 3.16,25.1 to 158
"Cc1cccc(-c2[nH]ncc2-c2ccc3ncc(C(=O)N(C)CCN4CCOCC4)cc3n2)n1 [Compound 182, N-methyl-6-[5-(6-methyl-2-pyridyl)-1H-pyrazol-4-yl]-N-(2-morpholinoethyl)-1,5-naphthyridine-3-carboxamide]",3.98 to 31.6,200 to 1260
"Cc1cccc(-c2n[nH]cc2-c2ccc3ncc(NCCN4C(C)CNCC4C)cc3n2)n1 (stereo not shown) [Compound 183, N-[2-(2,6-dimethylpiperazin-1-yl)ethyl]-6-[3-(6-methyl-2-pyridyl)-1H-pyrazol-4-yl]-1,5-naphthyridin-3-amine]",0.0398 to 0.316,200 to 1260
"Cc1cccc(-c2[nH]cnc2-c2ccc3ncc(NC4CCNC4)cc3c2)n1 (stereo not shown) [Compound 184, 6-[5-(6-methyl-2-pyridyl)-1H-imidazol-4-yl]-N-pyrrolidin-3-yl-quinolin-3-amine]",0.0398 to 0.316,25.1 to 158
"Cc1nc(-c2n[nH]cc2-c2ccc3ncc(-c4cnn5c4CNCC5)cc3n2)ccc1F [Compound 185, 2-[3-(5-fluoro-6-methyl-2-pyridyl)-1H-pyrazol-4-yl]-7-(4,5,6,7-tetrahydropyrazolo[1,5-a]pyrazin-3-yl)-1,5-naphthyridine]",0.0398 to 0.316,< 20
"Cc1cccc(-c2n[nH]cc2-c2ccc3ncc(N4CC5CN(C(C)C)CC54)cc3n2)n1 (stereo not shown) [Compound 186, 7-(3-isopropyl-3,6-diazabicyclo[3.2.0]heptan-6-yl)-2-[3-(6-methyl-2-pyridyl)-1H-pyrazol-4-yl]-1,5-naphthyridine]",0.398 to 3.16,25.1 to 158
"Cc1cccc(-c2[nH]cnc2-c2ccc3ncc(NC4CCNCC4)cc3c2)n1 [Compound 187, 6-[5-(6-methyl-2-pyridyl)-1H-imidazol-4-yl]-N-(4-piperidyl)quinolin-3-amine]",0.0398 to 0.316,200 to 1260
"Cc1cccc(-c2[nH]cnc2-c2ccc3ncc(NCCNC4CNC4)cc3c2)n1 [Compound 189, N′-(azetidin-3-yl)-N-[6-[5-(6-methyl-2-pyridyl)-1H-imidazol-4-yl]-3-quinolyl]ethane-1,2-diamine]",0.0398 to 0.316,200 to 1260
"Cc1cccc(-c2n[nH]cc2-c2ccc3ncc(-c4cncs4)cc3n2)n1 [Compound 190, 5-[6-[3-(6-methyl-2-pyridyl)-1H-pyrazol-4-yl]-1,5-naphthyridin-3-yl]thiazole]",< 0.0316,< 20
"Cc1cccc(-c2nnn(Cc3ccccc3)c2-c2ccc3ncc(N4CCC(N(C)C)C4)cc3c2)n1 (stereo not shown) [Compound 191, 1-[6-[3-benzyl-5-(6-methyl-2-pyridyl)triazol-4-yl]-3-quinolyl]-N,N-dimethyl-pyrrolidin-3-amine]",0.0398 to 0.316,25.1 to 158
"Cc1nc(-c2n[nH]cc2-c2ccc3ncc(-c4cnn(CCN)c4)cc3n2)ccc1F [Compound 192, 2-[4-[6-[3-(5-fluoro-6-methyl-2-pyridyl)-1H-pyrazol-4-yl]-1,5-naphthyridin-3-yl]pyrazol-1-yl]ethanamine]",< 0.0316,< 20
"Cc1cccc(-c2n[nH]cc2-c2ccc3ncc(N4CC(N)C4)cc3n2)n1 [Compound 193, 1-[6-[3-(6-methyl-2-pyridyl)-1H-pyrazol-4-yl]-1,5-naphthyridin-3-yl]azetidin-3-amine]",0.0398 to 0.316,25.1 to 158
"Cc1cccc(-c2[nH]ncc2-c2ccc3ncc(C(=O)O[C@@H]4CCNC4)cc3n2)n1 [Compound 195, [(3R)-pyrrolidin-3-yl] 6-[5-(6-methyl-2-pyridyl)-1H-pyrazol-4-yl]-1,5-naphthyridine-3-carboxylate]",0.398 to 3.16,25.1 to 158
"Cc1cccc(-c2[nH]cnc2-c2ccc3ncc(C4=CCC(N)CC4)cc3c2)n1 (stereo not shown) [Compound 196, 4-[6-[5-(6-methyl-2-pyridyl)-1H-imidazol-4-yl]-3-quinolyl]cyclohex-3-en-1-amine]",< 0.0316,< 20
"Cc1cccc(-c2[nH]cnc2-c2ccc3ncc(-c4cccc(C(=O)OC5CNC5)c4)cc3c2)n1 [Compound 197, azetidin-3-yl 3-[6-[5-(6-methyl-2-pyridyl)-1H-imidazol-4-yl]-3-quinolyl]benzoate]",0.0398 to 0.316,25.1 to 158
"Cc1cccc(-c2n[nH]cc2-c2ccc3ncc(-c4cn5c(n4)CN(CCO)CC5)cc3n2)n1 [Compound 198, 2-[2-[6-[3-(6-methyl-2-pyridyl)-1H-pyrazol-4-yl]-1,5-naphthyridin-3-yl]-6,8-dihydro-5H-imidazo[1,2-a]pyrazin-7-yl]ethanol]",0.0398 to 0.316,25.1 to 158
"Cc1cccc(-c2n[nH]cc2-c2ccc3ncc(NCC4CCCNC4)cc3n2)n1 (stereo not shown) [Compound 199, 6-[3-(6-methyl-2-pyridyl)-1H-pyrazol-4-yl]-N-(3-piperidylmethyl)-1,5-naphthyridin-3-amine]",0.0398 to 0.316,200 to 1260
"Cc1cccc(-c2[nH]cnc2-c2ccc3ncc(NC4CC5(CNC5)C4)cc3c2)n1 [Compound 200, N-(2-azaspiro[3.3]heptan-6-yl)-6-[5-(6-methyl-2-pyridyl)-1H-imidazol-4-yl]quinolin-3-amine]",0.0398 to 0.316,200 to 1260
"CC(C)N1CCN(CCNc2cnc3ccc(-c4c[nH]nc4-c4cccc(C(F)(F)F)n4)nc3c2)CC1 [Compound 201, N-(2-(4-isopropylpiperazin-1-yl)ethyl)-6-(3-(6-(trifluoromethyl)pyridin-2-yl)-1H-pyrazol-4-yl)-1,5-naphthyridin-3-amine]",0.0398 to 0.316,25.1 to 158
"Cc1nc(-c2nc3ccccn3c2-c2ccc3ncc(-c4nnn5c4CNCC5)cc3n2)ccc1F [Compound 202, 2-[2-(5-fluoro-6-methyl-2-pyridyl)imidazo[1,2-a]pyridin-3-yl]-7-(4,5,6,7-tetrahydrotriazolo[1,5-a]pyrazin-3-yl)-1,5-naphthyridine]",0.0398 to 0.316,200 to 1260
"Cc1cccc(-c2nn(C3CCCCO3)cc2-c2ccc3ncc(-c4cnoc4)cc3n2)n1 (stereo not shown) [Compound 203, 4-[6-[3-(6-methyl-2-pyridyl)-1-tetrahydropyran-2-yl-pyrazol-4-yl]-1,5-naphthyridin-3-yl]isoxazole]",0.398 to 3.16,200 to 1260
"Cc1cccc(-c2n[nH]cc2-c2ccc3ncc(N4CCN[C@@H](C(=O)N(C)C)C4)cc3n2)n1 [Compound 204, (2R)-N,N-dimethyl-4-[6-[3-(6-methyl-2-pyridyl)-1H-pyrazol-4-yl]-1,5-naphthyridin-3-yl]piperazine-2-carboxamide]",0.0398 to 0.316,25.1 to 158
"Cc1cccc(-c2n[nH]cc2-c2ccc3ncc(N4CCC(N5CCN(C)CC5)CC4)cc3n2)n1 [Compound 205, 7-[4-(4-methylpiperazin-1-yl)-1-piperidyl]-2-[3-(6-methyl-2-pyridyl)-1H-pyrazol-4-yl]-1,5-naphthyridine]",0.0398 to 0.316,25.1 to 158
"Cc1cccc(-c2[nH]cnc2-c2ccc3ncc(N4CCC5(CC4)CNC5)cc3c2)n1 [Compound 206, 3-(2,7-diazaspiro [3.5]nonan-7-yl)-6-[5-(6-methyl-2-pyridyl)-1H-imidazol-4-yl]quinoline]",0.0398 to 0.316,25.1 to 158
"Cc1cccc(-c2nc3ccccn3c2-c2ccc3ncc(-c4nnn5c4CNCC5)cc3n2)n1 [Compound 207, 2-[2-(6-methyl-2-pyridyl)imidazo[1,2-a]pyridin-3-yl]-7-(4,5,6,7-tetrahydrotriazolo[1,5-a]pyrazin-3-yl)-1,5-naphthyridine]",0.0398 to 0.316,25.1 to 158
